Test results reported in patent US11873287B2, “Piperidine-2,6-dione derivatives and ulcerative colitis treating” (TIANJIN HEMAY PHARMACEUTICAL SCI-TECH CO., LTD, priority 2016, dated 2024).

System: DSS-Induced inflammatory Bowel Disease Models in Mice
Experiment: DSS-induced inflammatory bowel disease model in mice (Biological Example 4, 1.3% DSS)
Format: in vivo, C57BL/6 mice
Conditions: 30 mg/Kg i.g. Q.D
Procedure: 40 healthy female C57BL/6 mice having weight of 16-19 g were randomly divided into 4 groups in accordance with weight. There were 10 mice in each group (see Table 6 below). The first day of the experiment was recorded as Day 0. The administration regimen and induction regimen were detailed in Table 6. The change in weight of experimental animals was recorded every day. […] Samples of animal colonic tissues were obtained to measure the length. One-way ANOVA analysis of mice weights was performed by SPSS22. Statistical analyses between groups were performed. Mann-Whitney U non-parametric test was performed on the length of colon.
The experimental method used in the present biological example is identical to those in Biological Example 3.
Calculation Formula of Inhibitory Rate of Colonic Reduction: (Length of Colon in Administration Group−Length of Colon in Model Group)/(Length of Colon in Blank Group−Length of Colon in Model Group)

Structure (SMILES): COCCCN1C(=O)CCC(N2C(=O)c3cccc(NC(C)=O)c3C2=O)C1=O (stereo not drawn) [Example 16, 4-acetylamino-2-(1-(3-methoxypropyl)-2,6-dioxopiperidin-3-yl)isoindolin-1,3-dione]
- Average Length of Colon (Mean ± SD) (1.3% DSS days 0-5): 7.0 ± 0.4 cm
- Inhibitory Rate of Colonic Reduction (1.3% DSS days 0-5): 73.3%
- Weights of Experimental Mice (Mean ± SD) (Day 0): 19.8 ± 0.6 g
- Weights of Experimental Mice (Mean ± SD) (Day 1): 19.9 ± 0.4 g
- Weights of Experimental Mice (Mean ± SD) (Day 2): 19.7 ± 0.4 g
- Weights of Experimental Mice (Mean ± SD) (Day 3): 19.9 ± 0.6 g
- Weights of Experimental Mice (Mean ± SD) (Day 4): 19.7 ± 0.5 g
- Weights of Experimental Mice (Mean ± SD) (Day 5): 19.6 ± 0.5 g
- Weights of Experimental Mice (Mean ± SD) (Day 6): 19.3 ± 0.7 g
- Weights of Experimental Mice (Mean ± SD) (Day 7): 19.0 ± 1.0 g
- Weights of Experimental Mice (Mean ± SD) (Day 8): 18.9 ± 1.2 g
- Weights of Experimental Mice (Mean ± SD) (Day 9): 18.9 ± 1.1 g
